Assay results reported in patent publication US20220339178A1, “COMPOSITIONS AND METHODS FOR COGNITIVE PROTECTION OF POLLINATORS AGAINST PESTICIDES” (priority 2019, published 2022).

Tests used:
[1] = system: bumblebee Bombus impatiens; experiment: Olfactory conditioning of PER in bumblebees: rutin vs imidacloprid; type: in vivo
Protocol: One colony of the bumblebee Bombus impatiens (Koppert Inc) was kept in laboratory conditions. Bees received pollen inside the nests and foraged to a 1M sugar-water feeder outside of the nest. Bees were collected while on the feeder and iced anesthetized to then be yolked restrained in plastic pipettes. Bees were maintained in the pipettes for the entire duration of the experiment (five days).
Control: 1M sugar water (20 μL) fed twice a day for three consecutive days;
Rutin: 1 μM Rutin (Sigma-Aldrich R5143) diluted in 1M sugar water (20 μL) fed twice a day for three days before training on the fourth day;
Imid: fed with 1M sugar water (20 μL) twice a day for three days and fed with 20 μL of 5 nM Imidacloprid (Prime Source LLC, IN, USA) in 1M sugar water 2 hours before training on the fourth day; and
Rutin+Imid: Bees fed with 1 μM Rutin diluted in 1M sugar water (20 μL) for three days before training and receiving 20 μL of 5 nM Imidacloprid in 1M sugar water 2 hours before training on the fourth day.
All bees were trained using olfactory conditioning of the proboscis extension response (PER). Briefly, bees were exposed to a presentation of 1-nonanol (Sigma-Aldrich) for 10 s. After 7 s of the onset of the odor presentation, the antenna was stimulated with 1.5 M sugar-water to elicit the PER. Following the PER, the bee was allowed to drink sugar-water for 3 s. Each paired presentation was considered a training trial and each individual received eleven training trials with an average intertrial interval of 10 minutes. After training, all bees were fed 20 μL of 1M sugar water and maintained in plastic boxes for 24 h until the retention test. […] Twenty-four hours after the last training trial the bees were presented with the conditioned odor for 10 s.
Performance for each individual was quantified as the number of conditioned PER responses across the trials. Thus, for each bee a score between zero and ten (0-10) was recorded.
Multiple comparisons were then run using Wilcoxon-tests between groups using single or two-tailed t-tests depending upon predictions (bees on all treatments were predicted to perform better than bees in the Imidacloprid group). Error due to multiple comparisons was controlled using the False Discovery Rate method (FDR-two stage sharpened method). In all cases corrected p-values are presented.
Acquisition learning (i.e. learning curves) was compared between bees fed with imidacloprid vs. protected bees using Repeated measures.
Retention was quantified as a nominal variable (yes/no). Data were compared across treatments using a Chi-square test, followed by multiple comparisons between pairs of treatments. Error due to multiple comparisons was controlled using the FDR as indicated above. In all cases corrected p-values are presented.
Latency was quantified as a continuous variable between 0.5 s and 10 s. Data were compared across treatments using an ANOVA following a Log transformation to normalize the distribution (Shapiro-Wilk W Test after log transformation: W=0.99, p=0.55), followed by multiple comparisons between groups using two-tailed t-test. Error due to multiple comparisons was controlled using the FDR method as indicated above. In all cases corrected p-values are presented.

[2] = system: Honey bee foragers (Apis mellifera scutellata); experiment: Sucrose responsiveness (sensory sensitivity) of honey bees: flavonoids vs deltamethrin; type: in vivo; conditions: honey bees; rutin 1 μM, kaempferol 131.7 μM or both for one day; 17.81 μM deltamethrin next day; pooled score
Protocol: Honey bee foragers (Apis mellifera scutellata) were captured from established hives at the Apiary of the Universidad del Rosario (Bogota, Colombia) between 08:00 h and 10:00 h. Bees were ice-anesthetized and harnessed in plastic tubes and maintained under laboratory conditions for the duration of the experiment (three days).
On the first day, bees were randomly allocated to one of four treatments administered as two doses (morning: 20 μL; afternoon:10 μL): i) Control (1M sucrose solution), ii) Rutin 1 μM (Sigma-Aldrich R5143), iii) Kaempferol 131.7 μM (Sigma-Aldrich K0133), iv) Rutin-Kaempferol composition (final concentration of […] rutin and 131.7 μM kaempferol). All solutions were diluted in 1M sucrose solution to the concentrations described above. The next day, bees from each group were randomly assigned to one of two treatments: […] of 1M sucrose solution or 17.81 μM deltamethrin (Dinastia Bayer). Thus, bees belonged to one of eight treatments: i) Sucrose water (Control), ii) Rutin (Rut), iii) Kaempferol (Kaemp), iv) Kaempferol+Rutin (Kaemp+Rut), v) Deltamethrin (Delta), vi) Rutin+Deltamethrin (Rut+Delta), vii) Kaempferol+Deltamethrin (Kaemp+Delta), viii) Kaempferol+Rutin+Deltamethrin ((Kaemp+Rut)+Delta). All solutions were diluted in 1M sugar water to the concentrations described above.
Sensory sensitivity was evaluated using responsiveness to sucrose, a proxy of resource exploitation by foragers. On the second day, bees of the eight treatments described above were tested five times for their response threshold (0 h, 1 h, 2 h, 3 h and 4 h). The first measure (0 h) was done prior to pesticide administration. Bees were tested with an ascending sucrose concentration of 0.1, 0.3, 1, 3, 10 and 30% (w/w). Between each concentration, the bees were presented with pure water as a control for potential sensitization or habituation (Pankiw et al., Behav Ecol Sociobiol (2000) 47:265-267). The inter-trial time between the presentation of each sucrose concentration was at least 4 minutes. For each presentation, the reflexive extension of the proboscis (tongue) of the bee, after antennal stimulation with the solution was recorded. After the last measure (4 h), bees were fed with 10 μL of 1M sucrose solution and maintained until the next day for a final test (24 hours after pesticide administration).
For each bee, a responsiveness score was determined (0-7) 0 h, 1 h, 2 h, 3 h, 4 h and 24 h, and a pooled scored (0-42). Normal distribution of the scores was tested using Shapiro-Wilk W Test for the null hypothesis that data is from a Normal distribution. […] Thus, non-parametric tests were used for comparisons across treatments and for multiple comparisons. Overall changes of responses across different concentrations were evaluated using repeated-measured MANOVA. Error associated with multiple comparisons was controlled using the Two-stage sharpened False Discovery Rate, and corrected p-values (q-values) are presented. Data were explored for outliers using a single run of Robust Fit outliers test. All analyses were conducted using JMP v.14 (SAS Institute Inc.)

| SMILES | learning across trials relative to Rutin+Imidacloprid bees ([1]; acquisition curves, repeated measures MANOVA) | latency of response relative to Control bees ([1]; bumblebees) | latency of response relative to bees fed with Rutin ([1]; bumblebees) | latency of response relative to bees prophylactically fed with Rutin ([1]; bumblebees) | memory retention after 24 h relative to Control group ([1]; bumblebees) | memory retention after 24 h relative to Rutin group ([1]; bumblebees) | memory retention after 24 h relative to Rutin+Imidacloprid group ([1]; bumblebees) | performance score relative to Control bees ([1]; bumblebees, score 0-10, rutin 1 μM twice a day for three days, imidacloprid 5 nM 20 μL 2 hours before training) | sensitivity (sucrose responsiveness, total PER score) relative to Control bees [2] |
| --- | --- | --- | --- | --- | --- | --- | --- | --- | --- |
| O=[N+]([O-])NC1=NCCN1Cc1ccc(Cl)nc1 [Imidacloprid] | significantly lower | significantly longer | significantly longer | not different | significantly lower | significantly lower | significantly lower | significantly lower |  |
| C[C@@H]1O[C@@H](OC[C@H]2O[C@@H](Oc3c(-c4ccc(O)c(O)c4)oc4cc(O)cc(O)c4c3=O)[C@H](O)[C@@H](O)[C@@H]2O)[C@H](O)[C@H](O)[C@H]1O [Rutin] |  |  |  |  |  |  |  |  | not significantly affected |
